{"source": "patent US20120309821A1", "about": "“Use of epigallocatechin-3-gallate for immune regulation” (NATIONAL DEFENSE MEDICAL CENTER, priority 2011, published 2012)", "format_in_all_cases": "in vivo, mouse", "key": {"[1]": {"system": "NZB/W F1 lupus-prone mice", "experiment": "Urine protein time course in NZB/W F1 lupus-prone mice", "conditions": "120 mg/kg EGCG by gavage daily from 12 weeks of age; weeks 28-34; vs disease control mice", "experimental": "(§1) Female NZB/W F1 mice were purchased from the Animal Center of the National Taiwan University (Taipei, Taiwan, ROC) and, at 12 weeks of age, were divided into two groups, one of which was given normal saline and served as the disease control, while the other was given 120 mg/kg body weight of EGCG (Ryss Lab, Inc., CA, USA) (this dose is a slight modification of those used in previous in vivo studies) by gavage daily till sacrificed at 34-weeks-old. 8-Week-old NZB/W F1 female mice (prior to onset of autoantibody production) were used as normal controls. Urine samples were collected in metabolic cages every 2 weeks and urine protein levels were measured, and serum samples were used to measure serum levels of blood urea nitrogen (BUN) and creatinine (Cr) as described previously (Ka, S. M. et al. Decoy receptor 3 ameliorates an autoimmune crescentic glomerulonephritis model in mice. J Am Soc Nephrol 18:2473-2485; 2007). All animal experiments were performed upon the ethical approval of the Institutional Animal Care and Use Committee of the National Defense Medical Center, Taiwan and according to the ethical rules in the NIH Guide for the Care and Use of Laboratory Animals."}, "[2]": {"system": "superoxide anion", "experiment": "Superoxide anion (ROS) levels in serum, urine and kidney", "conditions": "120 mg/kg by gavage daily, week 34", "experimental": "as §1, with “Animals. Kidney in situ superoxide anion production was determined by dihydroethidium (DHE) labeling. Fluorescent images were quantified by counting the percentage of positive nuclei in the total nuclei per kidney cross-section. Superoxide anion levels in serum and kidney tissues were measured as described previously and the results expressed as reactive luminescence units (RLU) per 15 min per milligram dry weight (i.e., RLU/15 min/mg dry weight).” for “Animals.”"}, "[3]": {"system": "glutathione peroxidase (GPx)", "experiment": "GPx activity in renal cortex lysates", "conditions": "120 mg/kg by gavage daily; week 34; compared with increase in disease control mice", "experimental": "as §1"}, "[4]": {"system": "IL-18", "experiment": "Serum IL-18 ELISA", "conditions": "120 mg/kg by gavage daily; week 34; vs disease control mice", "experimental": "as §1, with “Animals. Serum levels of IL-1β and IL-18 were measured using commercial ELISA kits (BD Biosciences) according to the manufacturer's instructions.” for “Animals.”"}, "[5]": {"system": "NLRP3 mRNA", "experiment": "Renal NLRP3 mRNA by real-time PCR", "conditions": "120 mg/kg by gavage daily; week 34; increase seen in disease control", "experimental": "as §1"}, "[6]": {"system": "caspase-1", "experiment": "Western blot of caspase-1 p20 in kidney", "conditions": "120 mg/kg by gavage daily, week 34", "experimental": "as §1, with “Animals. […] Antibodies to histone H3 (Cell Signaling) or β-actin (Santa Cruz) were used as internal controls for the nuclear and cytosolic target proteins, respectively.” for “Animals.”"}}, "data": [{"substance": "Epigallocatechin-3-gallate [EGCG]", "values": [{"measurement": "urine protein levels", "setting": "[1]", "result": "markedly inhibited"}, {"measurement": "levels of superoxide anion in the kidney", "setting": "[2]; kidney", "result": "inhibited"}, {"measurement": "superoxide anion levels in the serum", "setting": "[2]; serum", "result": "decreased by EGCG treatment to levels similar to those in normal control mice"}, {"measurement": "superoxide anion levels in the urine", "setting": "[2]; urine", "result": "decreased by EGCG treatment to levels similar to those in normal control mice"}, {"measurement": "GPx activity in the kidney", "setting": "[3]", "result": "even larger increase"}, {"measurement": "serum levels of IL-18", "setting": "[4]", "result": "significantly lower"}, {"measurement": "levels of NLRP3 mRNA in kidney tissues", "setting": "[5]", "result": "inhibited"}, {"measurement": "caspase-1 activation (appearance of the p20 subunit) in kidney", "setting": "[6]", "result": "significantly inhibited"}]}]}
